Experimental data taken from patent publication US12161669B2, “Compositions and methods for cell targeting therapies” (UMC UTRECHT HOLDING B.V., priority 2017, dated 2024).

Test system: CD277
Assay: dSTORM super-resolution imaging of CD277 clusters on HEK293FT cells
Type: cell-based
Settings: 100 uM pamidronate vs medium, DBSCAN
Description: HEK293FT cells were plated in eight-well Lab-Tek chambers to adhere and treated with 100 uM pamidronate overnight. For super-resolution imaging, cells were labeled with AF647-CD277 at RT. After labeling, cells were washed with PBS and fixed with 4% PFA and 0.2% gluteraldehyde for 1-2 h. Prior to super-resolution imaging, 200 μL of fresh SRB (Super-resolution buffer: 50 mM Tris, 10 mM NaCl, 10% glucose, 168.8 U/mL glucose oxidase, 1404 U/mL catalase, 10 mM cysteamine hydrochloride, pH 8.0) was added to the well. dSTORM imaging was performed using an inverted microscope (IX71; Olympus America) equipped with an oil-immersion objective 1.45-NA total internal reflection fluorescence objective (U-APO 150×; Olympus America). […]
dSTORM images were analyzed and reconstructed with custom-built MATLAB functions as described previously (Smith et al 2010, Nat Methods: Huang et al 2011, Biomed Opt Express). […]
Finally, in order to understand whether the enhanced recruitment of low affinity CTE-C13 TCR in the synapse was a result of changes in CD277 clustering due to the PAM treatment, direct stochastic optical reconstruction microscopy (dSTORM), a localization-based super-resolution imaging technique that provides ˜20 nm resolution was performed. […] To quantify the images, a density-based spatial clustering application (DBSCAN) was utilized. […]

## NCCC(O)(P(=O)(O)O)P(=O)(O)O [pamidronate]
  CD277 localization cluster size, density or number: did not dramatically change
